Test results reported in patent US6498254B1, “Antiretroviral compounds and compositions” (Uniroyal Chemical Company, Inc., priority 2001, dated 2002).
≈ marks a conversion by molar mass, not a printed value. Where two headings read alike, the source gives them in different places.

How the values were obtained:
CMV Davis strain = test: Activity against HCMV: virus-induced cytopathicity in HEL cells; format: cell-based, human cytomegalovirus (HCMV); conditions: for IC50: read-out: Antiviral IC50 (μg/ml) Davis strain; for Antiviral % Inhibition Davis strain: estimate of percent protection of HEL cells at the compound concentration
Description: Confluent HEL cells grown in […] microtiter plates were inoculated with CMV at an input of 100 PFU (plaque forming units) per well. After a one to two hour incubation period, residual virus was removed and the infected cells were further incubated with MEM (Minimal Essential Medium) (supplemented with 2% inactivated Fetal Calf Serum (FCS), […], and 0.3% sodium bicarbonate) containing varying concentrations of the test compounds. Antiviral activity was expressed as EC50 (50% effective concentration), or test compound concentration required to reduce virus-induced cytopathicity after seven days by 50% compared to the untreated control.
In some cases, the compounds had considerable cytotoxicity against HEL cells, which made determination of the EC50's difficult. In these cases, an estimate of the percent protection at the compound concentration indicated in the previous columns is given.

HIV-2 (ROD) = test: Inhibition of HIV-2 syncytium formation in CEM cells; format: cell-based; conditions: for EC50: Human immunodeficiency virus 2, CCRF-CEM, read-out: EC50 (μg/ml) HIV-2; for HIV-2 % Protection: protection of CEM cells against virus-induced cytopathicity at the compound concentration in the previous column
Text: (§1) The cell type used to determine activity of the compounds of the invention herein, i.e., the test compounds, against HIV was human T-lymphoblast (CEM) cells obtained from the American Tissue Cell Culture Collection (Rockville, Md.). HIV-1 (IIIB) was originally obtained from the culture of persistently HIV-1 infected H9 cells and was provided by R. C. Gallo and M. Popovic (National Cancer Institute, National Institutes of Health, Bethesda, Md.). HIV-2 (ROD) was originally obtained from L. M. Montagnier (Pasteur Institute, Paris, France).
(§2) To determine the antiviral activity of the test compounds, CEM cells were suspended at a cell density of approximately 300,000 cells per ml of culture medium and infected with approximately 100 CClD50 (100 CClD50 being the 50% cell culture infective dose) of HIV-1 (IIIB) or HIV-2 (ROD)). Then 100 μl of the infected cell suspensions was added to 200 μl micro titer plate wells containing 100 μl of appropriate serial (5-fold) dilutions of the test compounds. The inhibitory effect of the test compounds on HIV-1 or HIV-2 syncytium formation in CEM cells was examined microscopically on day four post infection. The 50% effective concentration (EC50) was defined as the test compound concentration that inhibits syncytium formation in the HIV-1 or HIV-2 infected cell cultures by 50%.
(§3) In some cases, the compounds had considerable cytotoxicity to CEM cells which made determination of the EC50 difficult. In these cases, the percent protection of the cells against virus-induced cytopathicity by the test compounds at the indicated compound concentration in the previous column is given.

HIV-1 (IIIB) = test: Inhibition of HIV-1 syncytium formation in CEM cells; format: cell-based; conditions: for EC50: read-out: EC50 (μg/ml) HIV-1; for HIV-1 % Protection: protection of CEM cells against virus-induced cytopathicity at the compound concentration in the previous column
Text: as §1, §2, §3

[1] = Human betaherpesvirus 5, 168 h, CMV-infected HEL cells, virus-induced cytopathicity after seven days
[2] = HIV-2 (ROD) infected CEM cells, syncytium formation, day four post infection
[3] = Human immunodeficiency virus 1, CCRF-CEM, HIV-1 (IIIB) infected CEM cells, syncytium formation, day four post infection
[4] = Human betaherpesvirus 5, HEL, 168 h
[5] = Human immunodeficiency virus 1, IIIB, CCRF-CEM
[6] = CMV-infected HEL cells, virus-induced cytopathicity after seven days
[7] = HIV-1 (IIIB) infected CEM cells, syncytium formation, day four post infection

| Molecule | IC50 (CMV Davis strain; [1]) [µg/mL] | Antiviral % Inhibition Davis strain (CMV Davis strain) [%] | EC50 (HIV-2 (ROD); [2]) [µg/mL] | HIV-2 % Protection (HIV-2 (ROD)) [%] | EC50 (HIV-1 (IIIB); [3]) [µg/mL] | HIV-1 % Protection (HIV-1 (IIIB)) [%] | IC50 (CMV Davis strain; [4]) [µg/mL] | EC50 (HIV-2 (ROD)) [µg/mL] | EC50 (HIV-1 (IIIB); [5]) [µg/mL] | Antiviral IC50 (μg/ml) Davis strain (CMV Davis strain; [6]) [µg/mL] | EC50 (μg/ml) HIV-2 (HIV-2 (ROD); [2]) [µg/mL] | EC50 (μg/ml) HIV-1 (HIV-1 (IIIB); [7]) [µg/mL] |
| --- | --- | --- | --- | --- | --- | --- | --- | --- | --- | --- | --- | --- |
| Cc1ccc[n+]([O-])c1[S+]([O-])Cc1c(Cl)cccc1Cl (centres unmarked) [Compound 138, 2-[[(2,6-dichlorophenyl)methyl]sulfinyl]-3-methyl-pyridine-N-oxide] | > 50 | 20.0 | > 100 | 0.0 | > 100 | 0.0 |  |  |  |  |  |  |
| COc1ccc(C=C(C#N)Sc2cccc[n+]2[O-])cc1 [Compound 159, 2-[1-cyano-2-(p-methoxyphenyl)ethenethio]pyridine-N-oxide] |  |  |  | 25.0 |  | 0.0 | 10 (≈ 35.2 µM) | > 20 | > 20 |  |  |  |
| CN1CCCC(CSc2cccc[n+]2[O-])C1 (centres unmarked) [Compound 156, 2-(N-methyl-3-piperidylmethylthio)pyridine-N-oxide] |  | 0.0 |  | 0.0 |  |  | > 50 | > 100 | 16 (≈ 67.1 µM) |  |  |  |
| Cc1ccc(CS(=O)(=O)c2cccc[n+]2[O-])cc1[N+](=O)[O-] [Compound 67, 2-[[(3-nitro-4-methylphenyl)methyl]sulfonyl]pyridine-N-oxide] | > 50 | 20.0 | 2.4 (≈ 7.78 µM) |  | 2.3 (≈ 7.46 µM) |  |  |  |  |  |  |  |
| Cc1ccc(C)c(C(Cl)S(=O)(=O)c2c(Cl)ccc[n+]2[O-])c1 (centres unmarked) [Compound 125, 3-chloro-2-[[chloro-(2,5-dimethylphenyl)methyl]sulfonyl]pyridine-N-oxide] | 31.5 (≈ 91 µM) |  | > 4 | 0.0 | > 4 | 0.0 |  |  |  |  |  |  |
| Cc1ccc(C)c(C(Cl)S(=O)(=O)c2cccc(C)[n+]2[O-])c1 (centres unmarked) [Compound 73, 2-[(2,5-dimethylphenyl)chloromethylsulfonyl]-6-methylpyridine-N-oxide] | > 20 | 40.0 | > 100 | 0.0 | 2.8 (≈ 8.59 µM) |  |  |  |  |  |  |  |
| Cc1ccc(C)c(C(C)S(=O)(=O)c2ccccn2)c1 (centres unmarked) [Compound 161, 2-[1-(2,5-dimethylphenyl)ethylsulfonyl]pyridine] | 38 (≈ 138 µM) |  | > 100 | 0.0 | 9.5 (≈ 34.5 µM) |  |  |  |  |  |  |  |
| CC(C)c1cc(CS(=O)(=O)c2cccc[n+]2[O-])c(C(C)C)cc1Br [Compound 63, 2-[[[2,5-bis(1-methylethyl)-4-bromophenyl]methyl]sulfonyl]pyridine-N-oxide] | 3.7 (≈ 8.97 µM) |  | 2.5 (≈ 6.06 µM) |  | 2.3 (≈ 5.58 µM) |  |  |  |  |  |  |  |
| 2-[(3-methoxy-4-benzyloxy)phenylmethylsulfonyl]pyridine-N-oxide [Compound 61] |  |  |  | 6.0 |  | 0.0 |  |  |  | 14.0 | >4.0 | >4 |
| Cc1ccc[n+]([O-])c1SCc1c(Cl)cccc1Cl [Compound 137, 2-[[(2,6-dichlorophenyl)methyl]thio]-3-methyl-pyridine-N-oxide] |  |  |  | 0.0 |  | 0.0 | 28 (≈ 93.3 µM) | > 20 | > 20 |  |  |  |
| COCC(c1cc(C)ccc1C)S(=O)(=O)c1ccccn1 (centres unmarked) [Compound 123, 2-[[1-(2,5-dimethylphenyl)-2-methoxyethyl]sulfonyl]pyridine] | > 50 | 40.0 | > 100 | 0.0 | 60 (≈ 196 µM) |  |  |  |  |  |  |  |
| Cc1ccc(C)c(CSc2ccccn2)c1 [Compound 148, 2-((2,5-dimethylphenyl)methylthio) pyridine] |  |  |  |  |  |  | 0.4 (≈ 1.74 µM) | > 20 | > 20 |  |  |  |
| COc1ccc(CSc2cc(C(C)(C)C)cc[n+]2[O-])cc1 [Compound 134, 4-(1,1-dimethylethyl)-2-[(4-methoxyphenyl)methylthio]pyridine-N-oxide] | > 50 |  | > 100 | 0.0 | > 20 | 0.0 |  |  |  |  |  |  |
| N#CC(=Cc1ccccc1)Sc1cccc[n+]1[O-] [Compound 158, 2-(1-cyano-2-phenylethenethio) pyridine-N-oxide] |  |  |  | 0.0 |  | 0.0 |  |  |  | 3.6 | >4 | >4 |
| Cc1ccc([N+](=O)[O-])c(CS(=O)(=O)c2cccc[n+]2[O-])c1 [Compound 62, 2-[[(2-nitro-5-methylphenyl)methyl]sulfonyl]pyridine-N-oxide] | > 5 | 20.0 | 5 (≈ 16.2 µM) |  | 1.9 (≈ 6.16 µM) |  |  |  |  |  |  |  |
| Cc1ccc(C)c(C(C)S(=O)(=O)c2c(Cl)ccc[n+]2[O-])c1 (centres unmarked) [Compound 124, 3-chloro-2-[[1-(2,5-dimethylphenyl)ethyl]sulfonyl]pyridine-N-oxide] | > 5 | 10.0 | > 0.8 | 0.0 | > 0.8 | 0.0 |  |  |  |  |  |  |
| Cc1ccc(C)c(CSc2cccc[n+]2C)c1 [Compound 142, 2[[(2,5-dimethylphenyl)methyl]thio]-1-methylpyridinium chloride] |  |  |  | 0.0 |  | 0.0 | 3.4 | > 4 | > 4 |  |  |  |
| ethyl-N-[4-(pyridyl-N-oxide-2-sulfonylmethyl)phenylcarbonyl]carbamate [Compound 60] |  | 0.0 |  |  |  |  |  |  |  | >50 | 17.0 | 40.00 |
| Cc1ccc(C)c(CS(=O)(=O)c2cccc(Cl)[n+]2[O-])c1 [Compound 77, 2-(2,5-dimethylphenylmethylsulfonyl)-6-chloropyridine-N-oxide] | 11 (≈ 35.3 µM) |  | > 0.8 | 0.0 | 0.7 (≈ 2.25 µM) |  |  |  |  |  |  |  |
| Cc1ccc(C)c(CS(=O)(=O)c2ccccn2)c1 [Compound 150, 2-(2,5-dimethylbenzylsulfonyl)pyridine] | > 50 | 20.0 | 20 (≈ 76.5 µM) |  | 3.25 (≈ 12.4 µM) |  |  |  |  |  |  |  |
| Cc1cc(CS(=O)(=O)c2cccc[n+]2[O-])ccc1[N+](=O)[O-] [Compound 66, 2-[[(3-methyl-4-nitrophenyl)methyl]sulfonyl]pyridine-N-oxide] | 5 (≈ 16.2 µM) |  | 2.5 (≈ 8.11 µM) |  | 3.1 (≈ 10.1 µM) |  |  |  |  |  |  |  |
